Experimental data from PubChem BioAssay (NCI).
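Briefly, cells in 96-well plates were exposed to five compound concentrations for 48 h, and endpoints were estimated by linear interpolation. GI50: concentration for 50% inhibition of growth. Definition used: TGI = concentration required for complete inhibition of growth.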

Tests used:
Test in all cases: inhibition of tumour cell growth, NCI panel, 48 h
[1] = tested on: A549 NSCLC
[2] = tested on: COLO 205 colon
[3] = tested on: MALME-3M melanoma
[4] = tested on: NCI-H460 lung
[5] = tested on: OVCAR-5 ovarian
[6] = tested on: OVCAR-8 ovarian
[7] = tested on: SF-539 CNS
[8] = tested on: SK-MEL-28 melanoma
[9] = tested on: U251 CNS
[10] = tested on: PC-3 prostate

Row | SMILES | TGI [1] [µM] | TGI [2] [µM] | TGI [3] [µM] | TGI [4] [µM] | TGI [5] [µM] | TGI [6] [µM] | TGI [7] [µM] | TGI [8] [µM] | TGI [9] [µM] | GI50 [1] [µM] | GI50 [2] [µM] | GI50 [3] [µM] | GI50 [4] [µM] | GI50 [5] [µM] | GI50 [6] [µM] | GI50 [10] [µM] | TGI [10] [µM] | GI50 [7] [µM] | GI50 [8] [µM] | GI50 [9] [µM]
1 | CCc1oc2ccc(OC)c3c2c1C=CC=C3 | > 100 | > 100 | > 100 | > 100 | > 100 | > 100 | > 100 | > 100 | > 100 | – | – | – | – | – | – | – | – | – | – | –
2 | CSc1ccc(C2=NN(C(=O)c3ccc(N)cc3)C(c3ccc(F)cc3)C2)cc1 (stereo not given) | 32.7 | 22.7 | 23 | 35.2 | 31.2 | 32.5 | 32.4 | 34.7 | 12.6 | 13.7 | 7.45 | 8.09 | 7.83 | 16.7 | 16.1 | 4.5 | 19.1 | 15.6 | 18.4 | 3.56
3 | CC(C)(C)C[P+](C)(C)c1ccccc1 | > 100 | > 100 | > 100 | > 100 | > 100 | > 100 | > 100 | > 100 | > 100 | – | – | – | – | – | – | – | – | – | – | –
4 | COC(=O)C1=Cc2c(OC)cc(OC)c(OC)c2[C@H](c2cc(OC)c(OC)cc2OC)C1C(=O)OC (stereo not given in full) | > 100 | > 100 | > 100 | > 100 | > 100 | > 100 | > 100 | > 100 | > 100 | – | – | – | – | – | – | – | – | – | – | –
5 | O=C1c2cccc3cc([N+](=O)[O-])cc(c23)C(=O)N1O | > 100 | > 100 | > 100 | > 100 | > 100 | > 100 | – | > 100 | > 100 | – | – | – | – | – | – | – | > 100 | – | – | –
6 | CP(C)C.[Ag][I] | > 100 | > 100 | > 100 | > 100 | > 100 | > 100 | > 100 | > 100 | > 100 | – | – | – | – | – | – | – | – | – | – | –
7 | C=C1CO[C@@H]2C[C@@H]1CC/C(C)=C/CC/C(C)=C/CC[C@@]2(C)O | 33 | > 60.9 | – | > 68.3 | 39.9 | 44.8 | 43.6 | 38.3 | 32.4 | 15.4 | 27.3 | – | 24.1 | 18.7 | 20.9 | 15.7 | 33.6 | 23.4 | 16.8 | 17.9
8 | CCCCCc1c(C)[nH]c(/C=c2\[nH]/c(=C3/C=c4ccccc4=N3)cc2OC)c1C | 0.636 | 0.494 | – | 11.2 | 1.81 | 1.67 | 0.659 | 1.22 | 0.627 | 0.0732 | 0.0568 | – | 0.0614 | 0.0654 | 0.297 | 0.0544 | > 100 | 0.0604 | 0.125 | 0.067
9 | COc1ccc(C2C3=C(COC3=O)N(CCO)c3cc4c(cc32)OCCO4)cc1OC (stereo not given) | > 50 | 3.62 | > 50 | > 18.9 | > 50 | > 50 | > 18 | > 50 | > 50 | 5.11 | 1.34 | > 50 | 1.84 | 18.4 | 4.46 | 1.58 | > 50 | 1.69 | > 50 | 2.89
10 | N#CC12Cc3ccc4c(c3-c3cccc(c31)CCN2C(=O)c1ccccc1)OCO4 (stereo not given) | > 100 | > 100 | > 100 | – | > 100 | > 100 | > 100 | > 100 | > 100 | – | – | – | – | – | – | – | – | – | – | –
11 | Cc1cc2nc3c4ccccc4n(CCN(C)C)c3nc2cc1C | 11.5 | 4.49 | 2.74 | 9.1 | 6.45 | 12.4 | 4.66 | 4.73 | 11.3 | 1.28 | 1.29 | 1.41 | 0.709 | 2.1 | 1.16 | 2.01 | 8.19 | 1.83 | 2.09 | 2.01
12 | CC1(C)CC2CC(C)(CN2c2ncnc3ccc(Br)cc23)C1 (stereo not given) | 9.11 | 29.8 | 11.6 | 35.2 | 27.1 | 25 | – | 28 | 26.1 | 2.82 | 15.4 | 0.195 | 11.1 | 14.1 | 12.3 | – | – | – | 13.9 | 13.3
13 | Cc1cccc(N=C2NC(=O)C(CC(=O)Nc3ccc(Cl)cc3C)S2)c1 (stereo not given) | > 100 | > 100 | > 100 | > 100 | > 100 | > 100 | > 100 | > 100 | – | – | – | – | – | – | – | – | – | – | – | –
14 | CCOC(=O)N1CCC(=O)C[C@@H]1C/C=C/P1(=O)O[C@H](c2ccccc2)C(C)N1C(C)C (stereo not given in full) | > 100 | – | > 100 | – | > 100 | > 100 | > 100 | > 100 | > 100 | – | – | – | – | – | – | – | – | – | – | –
15 | CC1=NN(c2ccccc2)C(=O)C1N=Nc1ccc(Br)c(C)c1 (stereo not given) | > 100 | > 100 | > 100 | > 100 | > 100 | > 100 | > 100 | > 100 | > 100 | – | – | – | – | – | – | – | – | – | – | –
16 | OC(c1ccccc1)c1c(-c2ccccc2)oc(-c2ccccc2)c1C(O)c1ccccc1 (stereo not given) | 20.5 | 19.4 | 25.4 | 28.8 | 32.6 | – | 30.5 | 27.9 | 27.6 | – | – | – | – | – | – | – | 24.1 | – | – | –
17 | C[C@]12CCCC(=O)C1C[C@H](C(=O)O)CC2 (stereo not given in full) | > 100 | > 100 | > 100 | > 100 | > 100 | > 100 | > 100 | > 100 | > 100 | – | – | – | – | – | – | – | – | – | – | –
18 | CN1CCN(c2ccc3nc4c(nc3c2C(F)(F)F)C(=O)c2ncccc2C4=O)CC1 | 3.92 | 3.29 | 2.24 | 1.32 | – | 8.96 | 2.85 | 4.18 | 4.04 | 1.21 | 1.45 | 1.06 | 0.273 | – | 1.97 | 1.44 | 11.5 | 1.51 | 1.99 | 1.38
